These results are taken from patent US11970497B2, “Tricyclic AKR1C3 dependent KARS inhibitors” (Novartis AG, priority 2019, dated 2024).

What all share (assay): Expanded lung cancer cell line proliferation assay
Type in all cases: cell-based

The test system of test [1] is HCC-44. To be noted: Homo sapiens, HCC44; HCC-44, 72 h, average of PrestoBlue and Cell Titer Glo; AKR1C3 134.3 TPM; read-out: Absolute Qualified AC50. The text has this: (§1) Cellular Proliferation Assay to Assess Compound Activity in an Expanded Panel of 57 NRF2 Pathway Mutant and Wild Type Lung Cancer Cell Lines.
(§2) Both the PrestoBlue Cell Viability Reagent and Cell Titer Glo were multiplexed together as the final assay readout. PrestoBlue is a cell permeable resazurin-based solution that utilizes the reducing power of living cells to quantitatively measure their proliferation. Cell Titer Glo measures the amount of ATP present, an indicator of metabolically active cells.
(§3) Expanded Lung Cancer Cell Line Proliferation Assay Outline, Analysis and Profiling Results
(§4) Cells were seeded into 384 well assay plates (Greiner Bio-One, Catalog #781080) using the Thermo Scientific Matrix WellMate microplate dispenser and Thermo Scientific Matrix WellMate small bore disposable tubing cartridges (Catalog #201-30002) in 30 μl of growth media (RPMI-1640 supplemented with 10% fetal bovine serum and 1% penicillin/streptomycin) per well (1000 to 2000 cells/well depending on doubling time). Following cell plating, assay plates were placed into tissue culture incubator at 37° C./5% CO2 overnight. The next day one assay plate for each cell line was used for a Day 0 Cell Titer Glo and PrestoBlue readout. 3 μl of PrestoBlue Cell Viability Reagent (Thermo Scientific, Catalog #A13262) was added to each well and then assay plates were incubated at 37° C./5% CO2 for 30 minutes prior to fluorescence readout on the EnVision 2105 multimode plate reader (Perkin Elmer). Following the PrestoBlue readout 18 μl of Cell Titer Glo (Promega, Catalog #G7572) was then added to each well, allowing plates to incubate at room temperature for 10 minutes prior to luminescence readout on the EnVision. Compound was then added to the remaining assay plates (each cell line run in triplicates) using the Labcyte Inc Echo 555 acoustic liquid handler. Compounds were arrayed into a Labcyte Inc Echo qualified 384 well LDV microplate (Cat #LP-0200-GNF10). Compounds were serially diluted 1:3.16 to generate an 8 point dose response for a final top concentration of 1 μM. DMSO (0.3%) was used as the neutral control (NC) and MG132 (30 μM) was used as the active control (AC). 90 nl of compounds were added to 30 μl of cells using the Labcyte Inc Echo 555 acoustic liquid handler for a final DMSO assay concentration of 0.3%. Following compound addition, assay plates were spun down in a tabletop centrifuge at 500 rpm for 1 minute and then placed into tissue culture incubator at 37° C./5% CO2 for 72 h. Following the 72 h incubation, all assay plates were readout using PrestoBlue and Cell Titer Glo using the same conditions previously described for the Day 0 readout. The Day 0 readout (untreated cells) was used to compare to the 72 h DMSO treated samples on each assay plate as a way of tracking each cell line's fold growth. NC1 control based normalization was used for data analysis in Helios, which incorporates the DMSO neutral control (NC) and MG132 active control (AC) for generating dose response curves that are then used to calculate the Absolute Qualified AC50 calls for each compound and cell line.
(§5) NC1 normalization calculation model: NC1: xn=±(x−NC)/(AC−NC)
(§6) +/− is set by the inhibition type parameter setting where NC and AC are averages (mean or median) over the corresponding NC and AC well values. The Qualified Absolute AC50 values for Compound 36 and Compound 40 are listed in the table below and are represented as the average activity in both the PrestoBlue and Cell Titer Glo assay readouts.
(§7) Absolute Qualified AC50 Values Listed Below are a Representation of Each Compounds' Average Activity in Both the PrestoBlue and Cell Titer Glo Assay Readouts.
For orientation: In ATP-based viability assays light output follows the ATP content of the culture.

For test [2], the system named is NCI-H2405. To be noted: Homo sapiens; NCI-H2405, 72 h, average of PrestoBlue and Cell Titer Glo; AKR1C3 189.1 TPM; read-out: Absolute Qualified AC50.
Text: as §1, §2, §3, §4, §5, §6, §7

Test [3] has as its system NCI-H661. To be noted: Homo sapiens; NCI-H661, 72 h, average of PrestoBlue and Cell Titer Glo; AKR1C3 3 TPM; read-out: Absolute Qualified AC50.
Text: as §1, §2, §3, §4, §5, §6, §7

The test system of test [4] is LCLC-97TM1. To be noted: Homo sapiens; LCLC-97TM1, 72 h, average of PrestoBlue and Cell Titer Glo; AKR1C3 1.9 TPM; read-out: Absolute Qualified AC50.
Text: as §1, §2, §3, §4, §5, §6, §7

In test [5] the test system is NCI-H322. To be noted: NCI-H322, 72 h, average of PrestoBlue and Cell Titer Glo; AKR1C3 21 TPM; read-out: Absolute Qualified AC50.
Text: as §1, §2, §3, §4, §5, §6, §7

Test [6] deals with HLC-1. To be noted: HLC-1, 72 h, average of PrestoBlue and Cell Titer Glo; AKR1C3 expression: no data available; read-out: Absolute Qualified AC50.
Text: as §1, §2, §3, §4, §5, §6, §7

The test system of test [7] is HCC78. To be noted: Homo sapiens; HCC78, 72 h, average of PrestoBlue and Cell Titer Glo; AKR1C3 3 TPM; read-out: Absolute Qualified AC50.
Text: as §1, §2, §3, §4, §5, §6, §7

Test [8] relates to ChaGo-K-1. To be noted: Homo sapiens; ChaGo-K-1, 72 h, average of PrestoBlue and Cell Titer Glo; AKR1C3 1.5 TPM; read-out: Absolute Qualified AC50.
Text: as §1, §2, §3, §4, §5, §6, §7

Test [9] concerns NCI-H358. To be noted: Homo sapiens; NCI-H358, 72 h, average of PrestoBlue and Cell Titer Glo; AKR1C3 5.6 TPM; read-out: Absolute Qualified AC50.
Text: as §1, §2, §3, §4, §5, §6, §7

Test [10] deals with Calu-6. To be noted: Homo sapiens; Calu-6, 72 h, average of PrestoBlue and Cell Titer Glo; AKR1C3 32.5 TPM; read-out: Absolute Qualified AC50.
Text: as §1, §2, §3, §4, §5, §6, §7

The subject of test [11] is NCI-H2030. To be noted: Homo sapiens; NCI-H2030, 72 h, average of PrestoBlue and Cell Titer Glo; AKR1C3 232.7 TPM; read-out: Absolute Qualified AC50.
Text: as §1, §2, §3, §4, §5, §6, §7

Test [12] has as its system NCI-H838. To be noted: Homo sapiens; NCI-H838, 72 h, average of PrestoBlue and Cell Titer Glo; AKR1C3 233 TPM; read-out: Absolute Qualified AC50.
Text: as §1, §2, §3, §4, §5, §6, §7

For test [13], the system named is NCI-H23. To be noted: Homo sapiens; NCI-H23, 72 h, average of PrestoBlue and Cell Titer Glo; AKR1C3 1 TPM; read-out: Absolute Qualified AC50.
Text: as §1, §2, §3, §4, §5, §6, §7

Test [14] has as its system NCI-H524. To be noted: Homo sapiens; NCI-H524, 72 h, average of PrestoBlue and Cell Titer Glo; AKR1C3 0.8 TPM; read-out: Absolute Qualified AC50.
Text: as §1, §2, §3, §4, §5, §6, §7

The structures appear in SMILES notation. Some results are limits rather than exact numbers.

In general, AC50 refers to the concentration giving half of the maximal activity seen. On to `CN1c2ccc(F)cc2C(=O)CC12CCN(C(=O)NCc1ccc(F)c(NCCO)c1)CC2` [Example 36, 6′-fluoro-N-(4-fluoro-3-((2-hydroxyethyl)amino)benzyl)-1′-methyl-4′-oxo-3′,4′-dihydro-1′H-spiro[piperidine-4,2′-quinoline]-1-carboxamide], for which the half-maximal activity concentration (AC50) in test [1] is 705 nM; in [2], 994 nM; in [3], greater than 1000 nM; in [4], greater than 1000 nM; in test [5] it was greater than 1000 nM; in test [6], greater than 1000 nM. The AC50 was greater than 1000 nM in [7]; greater than 1000 nM in [8]; greater than 1000 nM in test [9]; greater than 1000 nM in [10]; 648 nM in [11]; greater than 1000 nM in [12]. In addition, the AC50 in test [13] and in [14] was greater than 1000 nM in each case.
On to `O=C1CC2(CCN(C(=O)NCc3ccc(F)cc3)CC2)Nc2ccc(F)cc21` [Example 40], for which the half-maximal activity concentration (AC50) was 440 nM in test [1]; 474 nM in test [2]; greater than 1000 nM in test [3]; greater than 1000 nM in test [4]; greater than 1000 nM in [5]; greater than 1000 nM in [6]. Besides, the AC50 is greater than 1000 nM in test [7]; greater than 1000 nM in test [8]; greater than 1000 nM in test [9]; greater than 1000 nM in test [10]; 364 nM in test [11]; 641 nM in test [12]. Further, the AC50 in test [13] and in test [14] was greater than 1000 nM in each case.
